Experimental data reported in ChEMBL document CHEMBL1201862, “PubChem BioAssay data set” (2004).
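Where inhibition never reached the appropriate level, the endpoint shown equals the highest concentration tested. Otherwise, values were interpolated linearly from a five-concentration, 48-hour dose response in 96-well plates. At the GI50, growth is halved.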 The source made the active and inactive calls. Cut-off read from the data, not from the text of the source: active = GI50 up to about 1.1 µM and inactive = higher.

Columns and labels:
Assay in all cases: growth of human tumour cells (NCI), 48 h
[1] = tested on: DLD-1
[2] = tested on: HCT-15
[3] = tested on: 786-0
[4] = tested on: A498
[5] = tested on: MOLT-4
[6] = tested on: CCRF-CEM
[7] = tested on: UO-31
[8] = tested on: NCI-H226
[9] = tested on: KM-20L2
[10] = tested on: RXF 393
[11] = tested on: OVCAR-5
[12] = tested on: A549
[13] = tested on: UACC-62
[14] = tested on: U-251
[15] = tested on: LXFL 529
[16] = tested on: IGROV-1
[17] = tested on: RPMI-8226
[18] = tested on: NCI-H522
[19] = tested on: SNB-78
[20] = tested on: XF498
[21] = tested on: OVCAR-3
[22] = tested on: SK-MEL-2
[23] = tested on: OVCAR-4
[24] = tested on: SF-539
[25] = tested on: SN12C
[26] = tested on: Malme-3M
[27] = tested on: SNB-75
[28] = tested on: KM12
[29] = tested on: HOP-18
[30] = tested on: NCI-H460
[31] = tested on: M14
[32] = tested on: SW-620
[33] = tested on: HT-29
[34] = tested on: SK-MEL-28
[35] = tested on: SNB-19
[36] = tested on: SF-268
[37] = tested on: HCT-116
[38] = tested on: COLO 205
[39] = tested on: HOP-92
[40] = tested on: CAKI-1
[41] = tested on: M19-MEL
[42] = tested on: LOX IMVI
[43] = tested on: OVCAR-8
[44] = tested on: DMS-273
[45] = tested on: SK-MEL-5
[46] = tested on: K562
[47] = tested on: TK-10
[48] = tested on: SK-OV-3
[49] = tested on: EKVX
[50] = tested on: ACHN
[51] = tested on: NCI-H23
[52] = tested on: UACC-257
[53] = tested on: SR
[54] = tested on: SF-295
[55] = tested on: HL-60
[56] = tested on: HCC 2998
[57] = tested on: HOP-62

## O=C(N/C(=C\c1ccc(Cl)cc1)c1nc2ccccc2[nH]1)c1ccccc1
[1]
  GI50: 15.8 µM (inactive)
[2]
  GI50: 26.4 µM
[3]
  GI50: 18.9 µM (inactive)
[4]
  GI50: 21.8 µM (inactive)
[5]
  GI50: 16.5 µM (inactive)
[6]
  GI50: 20 µM (inactive)
[7]
  GI50: 18.8 µM (inactive)
[8]
  GI50: 22.2 µM (inactive)
[9]
  GI50: 2.44 µM (inactive)
[10]
  GI50: 18.4 µM (inactive)
[11]
  GI50: 37.2 µM (inactive)
[12]
  GI50: 25.4 µM (inactive)
[13]
  GI50: 16 µM (inactive)
[14]
  GI50: 22.2 µM (inactive)
[15]
  GI50: 15.3 µM (inactive)
[16]
  GI50: 19.4 µM (inactive)
[17]
  GI50: 16.7 µM (inactive)
[18]
  GI50: 12.7 µM (inactive)
[19]
  GI50: 29.3 µM (inactive)
[20]
  GI50: 18.6 µM (inactive)
[21]
  GI50: 19.6 µM (inactive)
[22]
  GI50: 19.1 µM (inactive)
[23]
  GI50: 14.7 µM (inactive)
[24]
  GI50: 16.7 µM (inactive)
[25]
  GI50: 21.9 µM (inactive)
[26]
  GI50: 34 µM (inactive)
[27]
  GI50: 19.7 µM (inactive)
[28]
  GI50: 16.8 µM (inactive)
[29]
  GI50: 13.7 µM (inactive)
[30]
  GI50: 22.1 µM (inactive)
[31]
  GI50: 18.7 µM (inactive)
[32]
  GI50: 27.4 µM (inactive)
[33]
  GI50: 27.8 µM (inactive)
[34]
  GI50: 18.5 µM (inactive)
[35]
  GI50: 27.2 µM (inactive)
[36]
  GI50: 16.3 µM (inactive)
[37]
  GI50: 13.7 µM (inactive)
[38]
  GI50: 17.7 µM (inactive)
[39]
  GI50: 14.9 µM (inactive)
[40]
  GI50: 20.6 µM (inactive)
[41]
  GI50: 19 µM (inactive)
[42]
  GI50: 16.2 µM (inactive)
[43]
  GI50: 24.5 µM (inactive)
[44]
  GI50: 21.1 µM (inactive)
[45]
  GI50: 20.1 µM (inactive)
[46]
  GI50: 15.1 µM (inactive)
[47]
  GI50: 30.3 µM (inactive)
[48]
  GI50: 37.1 µM (inactive)
[49]
  GI50: 26.9 µM (inactive)
[50]
  GI50: 27.5 µM (inactive)
[51]
  GI50: 18.3 µM (inactive)
[52]
  GI50: 19.2 µM (inactive)

## O=C1CC[C@H](NC(=O)Cc2ccccc2)C(=O)N1 [ANTINEOPLASTON A10]
[1]
  GI50: > 1250 µM (inactive)
[2]
  GI50: > 1250 µM
[3]
  GI50: > 1250 µM (inactive)
[53]
  GI50: > 1250 µM (inactive)
[5]
  GI50: > 1250 µM (inactive)
[6]
  GI50: > 1250 µM (inactive)
[7]
  GI50: > 1250 µM (inactive)
[8]
  GI50: > 1250 µM (inactive)
[9]
  GI50: > 1250 µM (inactive)
[10]
  GI50: > 1250 µM (inactive)
[54]
  GI50: > 1250 µM (inactive)
[11]
  GI50: > 1250 µM (inactive)
[12]
  GI50: > 1250 µM (inactive)
[13]
  GI50: > 1250 µM (inactive)
[14]
  GI50: > 1250 µM (inactive)
[15]
  GI50: > 1250 µM (inactive)
[16]
  GI50: > 1250 µM (inactive)
[17]
  GI50: > 1250 µM (inactive)
[18]
  GI50: > 1250 µM (inactive)
[20]
  GI50: > 1250 µM (inactive)
[22]
  GI50: > 1250 µM (inactive)
[23]
  GI50: > 1250 µM (inactive)
[24]
  GI50: > 1250 µM (inactive)
[25]
  GI50: > 1250 µM (inactive)
[26]
  GI50: > 1250 µM (inactive)
[27]
  GI50: 877 µM (inactive)
[28]
  GI50: > 1250 µM (inactive)
[29]
  GI50: > 1250 µM (inactive)
[30]
  GI50: > 1250 µM (inactive)
[31]
  GI50: > 1250 µM (inactive)
[32]
  GI50: > 1250 µM (inactive)
[33]
  GI50: > 1250 µM (inactive)
[34]
  GI50: > 1250 µM (inactive)
[35]
  GI50: > 1250 µM (inactive)
[36]
  GI50: > 1250 µM (inactive)
[37]
  GI50: > 1250 µM (inactive)
[55]
  GI50: > 1250 µM (inactive)
[38]
  GI50: > 1250 µM (inactive)
[40]
  GI50: > 1250 µM (inactive)
[41]
  GI50: > 1250 µM (inactive)
[56]
  GI50: > 1250 µM (inactive)
[42]
  GI50: > 1250 µM (inactive)
[43]
  GI50: > 1250 µM (inactive)
[44]
  GI50: > 1250 µM (inactive)
[46]
  GI50: > 1250 µM (inactive)
[47]
  GI50: > 1250 µM (inactive)
[48]
  GI50: > 1250 µM (inactive)
[57]
  GI50: > 1250 µM (inactive)
[49]
  GI50: > 1250 µM (inactive)
[50]
  GI50: > 1250 µM (inactive)
[51]
  GI50: > 1250 µM (inactive)
[52]
  GI50: > 1250 µM (inactive)
